# Measured values taken from patent USRE47607E1, “Luciferase signal enhancing compositions” (GENE STREAM PTY LTD, priority 2006, dated 2019).
# Entries after “also recorded” stand apart in the source; their conditions may differ.
# Tests used:
# [1] = test system: non-secreted Gaussia luciferase; assay: non-secreted Gaussia luciferase activity in HeLa cell lysates; type: biochemical; settings: for signal intensity with detergent in lysis buffer: detergent 0.1% in lysis buffer unless otherwise indicated, FIGS. 13A-C; for light units (% of those obtained using 0.1% NP40): detergent type and concentration varied, 40 or 120 min, FIGS. 14A, 14B; for stability of luciferase activity between 20 and 90 min after onset of cell lysis: salt and EDTA in lysis buffer, % of light units at 20 min lysis, FIG. 7; for light output (% of light units obtained in the absence of salt): salt in lysis buffer, assayed 40 min after lysis buffer, FIG. 3; for signal intensity: chelator type and concentration varied, 30 min lysis, FIG. 9
# Procedure: HeLa cells stably expressing non-secreted and destabilized Gaussia luciferase were plated onto 96-well plates and incubated overnight. Medium was removed and the cells lysed in 30 ul of lysis buffer per well. The lysis buffer (LB) comprised; 25 mM Tris pH 7.8; 0.1% NP40; 1 mM EDTA plus NaBr at concentrations of (from left to right) 0 mM, 150 mM, 0 mM and 75 mM. Luciferase activity was assayed by injecting 30 ul of an assay buffer (AB) comprising 25 mM Tris pH 7.8; 40 uM Cz plus NaBr at concentrations of (from left to right) 0 mM, 0 mM, 150 mM and 75 mM. Thus, the final concentration of NaBr was 75 mM in all samples, except the no salt controls. Results were expressed as relative light units (RLU) (See FIG. 2).
# HeLa cells stably expressing non-secreted and destabilized Gaussia luciferase were plated onto 96-well plates and incubated overnight. Medium was removed and the cells lysed in 20 ul of lysis buffer per well. The lysis buffer comprised; 25 mM Tris pH 8.1, 1 mM EDTA; 0.1% NP40; 63.4 uM Na-Oxalate; 5% Glycerol plus the concentration and type of salt indicated in FIG. 3. Luciferase activity was assayed at 40 min after addition of the lysis buffer (by injecting 60 ul of an assay buffer comprising 25 mM Tris pH 8.1; 1 mM EDTA, 2 mM Ascorbate; 26 uM Cz. Results were expressed as a % of the light units obtained in the absence of salt (see FIG. 3). […]
# Luciferase assays were performed as described in Example 4. All salts were present at 150 mM in lysis buffer.
# Luciferase assays were performed as described in Example 7, except using the indicated concentrations of salt and EDTA in the lysis buffer. Replicate samples were assayed for luciferase activity at 20, 30, 40 and 90 min after addition of lysis buffer. Results were expressed as a % of the light units obtained after 20 min lysis in the same lysis buffer (see FIG. 7).
# Luciferase assays were performed as described in Example 8, except using lysis buffer containing 150 mM NaBr and the indicated concentration of EDTA. Two experiments are shown as separate graphs, with results shown as relative light units (RLU) (see FIGS. 8A and 8B). Within each experiment, the same assay buffer was used for all samples and the lysis buffer differed only in the amount of EDTA as indicated. Replicate samples were assayed for activity of non-secreted Gaussia luciferase at 30 or 120 min after addition of lysis buffer.
# Luciferase assays were performed as described in Example 9, except using the indicated type and concentration of chelator and a 30 min lysis period.
# HeLa cells expressing destabilised, non-secreted Gaussia luciferase were plated in equal aliquots onto 96-well plates and incubated overnight. Three experiments are shown as separate graphs (FIGS. 13A, 13B and 13C). Within each experiment, the same assay buffer was used for all samples and the lysis buffer differed only in the type of detergent used (0.1% in lysis buffer unless otherwise indicated).
# HeLa cells expressing destabilised, non-secreted Gaussia or non-secreted Metridia luciferases were plated in equal aliquots onto 96-well plates and incubated overnight. Medium was removed and the cells lysed in 20 ul of lysis buffer. The detergent type and concentration was varied as indicated.
# [2] = test system: non-secreted Metridia luciferase; assay: non-secreted Metridia luciferase activity in HeLa cell lysates; type: biochemical; settings: for light units (% of those obtained using 0.1% NP40): detergent type and concentration varied, 40 or 120 min, FIGS. 14A, 14B; for increase in activity between 30 and 120 min lysis: salt 150 mM in lysis buffer, % of light units at 30 min lysis, FIG. 26; for signal intensity: chelator in lysis buffer without salt, 30 or 120 min lysis, FIGS. 10A, 10B
# Procedure: HeLa cells stably expressing either non-secreted and destabilized Gaussia or non-secreted and destabilized Metridia luciferase were plated onto 96-well plates and incubated overnight. Medium was removed and the cells lysed in 20 ul of lysis buffer per well. The lysis buffer comprised; 25 mM Tris pH 8.1; 0.1% NP40; 63.4 uM Na-Oxalate; 5% Glycerol plus the concentration and type of salt indicated in FIG. 4. Replicate samples were assayed for luciferase activity after 30 minutes following addition of the lysis buffer by injecting 60 ul of assay buffer. The assay buffer comprised 25 mM Tris pH 7.75; 2 mM Ascorbate; 24 uM Cz. Results were expressed as a % of the light units obtained in the absence of salt (see FIG. 4).
# Luciferase assays were performed as described in Example 5 with either non-secreted and destabilized Gaussia luciferase or non-secreted and destabilized Metridia luciferase. Two experiments are shown as separate graphs, with results shown as relative luminescence in counts per second (CPS) (see FIGS. 5A and 5B). Within each experiment, the lysis buffer and assay buffer differed only in the amount and type of salt added as indicated. Replicate samples were analysed at 120 min after addition of the lysis buffer (LB) by injecting 60 ul of assay buffer (AB).
# Luciferase assays were performed with non-secreted and destabilized Metridia luciferase as described in Example 5, except the lysis buffer contained no salt and but contained the indicated type and concentration of chelators. Replicate luciferase assay were carried out after a 30 or 120 min lysis period. Results from the 30 min time point were expressed as a % of the light units obtained in the absence of chelator (see FIG. 10A) and results from the 120 min time point were expressed as % of the light units obtained with the same lysis buffer at 30 min (see FIG. 10B).
# HeLa cells expressing destabilised, non-secreted Gaussia or non-secreted Metridia luciferases were plated in equal aliquots onto 96-well plates and incubated overnight. Medium was removed and the cells lysed in 20 ul of lysis buffer. The detergent type and concentration was varied as indicated. Luciferase assays were carried out by injecting 60 ul of assay buffer comprising 25 mM Tris pH 8.1; 1 mM EDTA, 2 mM Ascorbate; 24 uM Cz Two experiments are shown, in the first the lysis buffer also contained 5% glycerol, 64 uM sodium oxalate, 150 mM NaBr, 25 mM Tris pH 8.5, 5 mM EDTA, 0.6 mM reduced glutathione, 0.4 mM oxidised glutathione, 75 mM urea (v6) and luciferase activity was assayed at 40 min. In the second experiment, the lysis buffer also contained 2 5 mM Tris pH 8.1, 63.4 uM Na-oxalate, 150 mM NaBr, 5% Glycerol and the luciferase activity was assayed at 120 min. Results were expressed as the % of the light units obtained using 0.1% NP40 (see FIGS. 14A and 14B). […]
# HeLa cells expressing destabilised, non-secreted Metridia luciferase were plated in equal aliquots onto 96-well plates and incubated overnight.
# [3] = test system: secreted Gaussia luciferase; assay: secreted Gaussia luciferase activity in conditioned medium of transfected HeLa cells; type: biochemical; settings: salt in assay buffer, 26 uM Cz, pH 8.1; FIG. 1
# Procedure: HeLa cells were transiently transfected with a plasmid expressing native, secreted Gaussia luciferase and 24 hrs later the conditioned medium was collected. Wells of a 96-well plate were loaded with 20 ul of conditioned medium and assayed for luciferase activity by injecting 60 ul of an assay buffer comprising 26 uM Cz; pH 8.1 plus the salt as indicated in FIG. 1. Results were expressed as a % of the light units obtained in the absence of salt (FIG. 1).
# Firefly luciferase = Firefly luciferase (Photinus pyralis, UniProt P08659); settings: EDTA in lysis buffer, 30 min; FIG. 12
# Procedure: (§1) HeLa cells expressing Firefly or Renilla luciferases were plated into 96-well plates and incubated overnight. Medium was removed and the cells lysed in 20 ul of lysis buffer containing 25 mM Tris pH 8.1; 0.1% NP40; 63.4 uM Na-Oxalate; 5% Glycerol, 150 mM NaCl plus the concentration of EDTA in FIG. 12. Replicate samples were assayed for luciferase activity at 30 min by injecting 30 ul of Firefly assay buffer II containing Firefly substrate followed by 30 ul of Promega's “Stop and Glo” buffer containing Renilla substrate. Results are expressed as a % of the light units obtained in the absence of EDTA (see FIG. 12).
# Renilla luciferase = Renilla luciferase (Renilla reniformis, UniProt P27652); settings: EDTA in lysis buffer, 30 min; FIG. 12
# Procedure: as §1
# [4] = test system: non-secreted Gaussia luciferase; assay: non-secreted Gaussia luciferase activity in HeLa cell lysates; type: biochemical; settings: 50-100 mM urea in lysis buffer, glutathione in both buffers; FIG. 24
# Chain of Renilla luciferase (P27652 whole entry): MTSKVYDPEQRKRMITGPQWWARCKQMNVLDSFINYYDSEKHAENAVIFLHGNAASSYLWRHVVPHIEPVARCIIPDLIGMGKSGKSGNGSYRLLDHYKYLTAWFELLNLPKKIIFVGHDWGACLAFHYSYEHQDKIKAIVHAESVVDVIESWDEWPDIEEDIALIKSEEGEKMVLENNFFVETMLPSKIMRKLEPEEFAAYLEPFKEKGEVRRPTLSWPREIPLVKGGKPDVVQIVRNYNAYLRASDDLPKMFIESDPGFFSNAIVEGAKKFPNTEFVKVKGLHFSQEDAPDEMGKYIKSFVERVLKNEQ
# Chain of Firefly luciferase (P08659 whole entry): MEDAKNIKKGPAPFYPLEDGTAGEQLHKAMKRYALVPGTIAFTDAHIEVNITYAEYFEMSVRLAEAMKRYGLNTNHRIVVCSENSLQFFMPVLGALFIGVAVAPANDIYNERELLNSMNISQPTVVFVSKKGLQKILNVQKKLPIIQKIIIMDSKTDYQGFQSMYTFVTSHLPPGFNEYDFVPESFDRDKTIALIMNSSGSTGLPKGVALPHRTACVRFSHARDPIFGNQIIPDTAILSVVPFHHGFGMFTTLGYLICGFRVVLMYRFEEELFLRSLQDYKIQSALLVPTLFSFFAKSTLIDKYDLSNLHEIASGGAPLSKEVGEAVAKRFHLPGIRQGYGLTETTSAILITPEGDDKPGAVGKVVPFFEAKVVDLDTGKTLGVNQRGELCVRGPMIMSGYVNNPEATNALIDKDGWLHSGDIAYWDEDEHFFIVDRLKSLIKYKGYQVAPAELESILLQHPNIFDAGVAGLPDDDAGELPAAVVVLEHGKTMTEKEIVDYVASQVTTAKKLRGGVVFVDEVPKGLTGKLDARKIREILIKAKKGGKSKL
molecule,measurement,setting,value
C[C@H](CCC(=O)[O-])[C@H]1CC[C@H]2[C@@H]3CC[C@@H]4C[C@H](O)CC[C@]4(C)[C@H]3C[C@H](O)[C@]12C.[Na+] [DOC],signal intensity with detergent in lysis buffer,[1],do not perform well
same,light units (% of those obtained using 0.1% NP40),[1],concentration-dependent inhibition on signal intensity. This effect was most evident
same,light units (% of those obtained using 0.1% NP40),[2],concentration-dependent inhibition on signal intensity. This effect was most evident
"[Br-].[Na+] [NaBr, sodium bromide]",light output (% of light units obtained in the absence of salt),[3],higher than with either NaCl or no salt
same,luciferase activity (RLU),"[1]; NaBr in lysis buffer or assay buffer, final 75 mM, FIG. 2","enhances activity of non-secreted Gaussia luciferase, especially when included in lysis buffer"
same,stability of luciferase activity between 20 and 90 min after onset of cell lysis,[1],far more stable (and therefore more desirable) level of luciferase activity
same,light output (% of light units obtained in the absence of salt),[1],superior enhancement to NaCl
same,increase in activity between 30 and 120 min lysis,[2],performed better than NaCl
same,light output (% of light units obtained in the absence of salt),"[2]; salt in lysis buffer, assayed 30 min after lysis buffer, FIG. 4",superior enhancement to NaCl
O=C(O)CN(CCN(CC(=O)O)CC(=O)O)CC(=O)O [EDTA],signal intensity,[1],concentration-dependent beneficial effect on signal intensity
same,signal intensity and stability of signal over time in lysis buffer,"[1]; lysis buffer with 150 mM NaBr and varied EDTA, 30 or 120 min, FIGS. 8A, 8B",benefit of higher amounts of EDTA in terms of both signal intensity and the stability of the luciferase signal over time in lysis buffer
same,stability of luciferase activity between 20 and 90 min after onset of cell lysis,[1],far more stable (and therefore more desirable) level of luciferase activity
same,signal intensity,[2],concentration-dependent beneficial effect on signal intensity
same,increase in activity between 30 and 120 min lysis,[2],performed considerably better
same,light units (% of those obtained in the absence of EDTA),Firefly luciferase,clearly decreases the activity of Firefly luciferase
same,light units (% of those obtained in the absence of EDTA),Renilla luciferase,does not provide the same beneficial effect on signal intensity
C[C@H](CCC(=O)NCCC[N+](C)(C)CCCS(=O)(=O)[O-])[C@H]1CC[C@H]2[C@@H]3[C@H](O)C[C@@H]4C[C@H](O)CC[C@]4(C)[C@H]3C[C@H](O)[C@]12C [CHAPS],signal intensity with detergent in lysis buffer,[1],appeared not to lyse the cells at 0.1%
same,light units (% of those obtained using 0.1% NP40),[1],insufficient to lyse the cells
same,light units (% of those obtained using 0.1% NP40),[2],insufficient to lyse the cells; also recorded: highest activity for non-secreted Metridia luciferase
Triton X100,light units (% of those obtained using 0.1% NP40),[1],highest signal intensity
same,light units (% of those obtained using 0.1% NP40),[2],highest signal intensity
NP40,effect of % NP40 in lysis buffer on signal strength,"[1]; FIGS. 16A, 16B",signal strength declined with increasing amounts of detergent
same,signal intensity with detergent in lysis buffer,[1],highest signal intensity
same,light units (% of those obtained using 0.1% NP40),[1],highest signal intensity
same,light units (% of those obtained using 0.1% NP40),[2],highest signal intensity
O=C(O)CN(CC(=O)O)C1CCCCC1N(CC(=O)O)CC(=O)O (stereo not drawn) [CDTA],signal intensity,[2],concentration-dependent beneficial effect on signal intensity
CCCCCCCCCCCCOS(=O)(=O)[O-].[Na+] [SDS],signal intensity with detergent in lysis buffer,[1],do not perform well
same,light units (% of those obtained using 0.1% NP40),[1],blocks enzymatic activity; also recorded: concentration-dependent inhibition on signal intensity. This effect was most evident
same,light units (% of those obtained using 0.1% NP40),[2],blocks enzymatic activity; also recorded: concentration-dependent inhibition on signal intensity. This effect was most evident
[Cl-].[Na+] [NaCl],light output (% of light units obtained in the absence of salt),[1],increased light output compared to no salt
same,increase in activity between 30 and 120 min lysis,[2],more than 1200%
NC(N)=O [urea],increase in signal between 15 and 60 min lysis,[4],increase was less pronounced
O=C(O)CN(CCOCCOCCN(CC(=O)O)CC(=O)O)CC(=O)O [EGTA],signal intensity,[1],concentration-dependent beneficial effect on signal intensity
same,signal intensity,[2],concentration-dependent beneficial effect on signal intensity
CCCCCCCCCCCCCCCC[N+](C)(C)C.[Br-] [CTAB],effect of cationic detergent on signal intensity,"[1]; data not shown, luciferase not specified, stated under Example 15",strong inhibitory effect on signal intensity
N[C@@H](CCC(=O)N[C@@H](CS)C(=O)NCC(=O)O)C(=O)O [reduced glutathione],rate at which luciferase acquires maximum activity during cell lysis; signal,"[1]; total glutathione and reduced:oxidized ratio varied, 20 or 60 min, FIG. 21",somewhat reduced signal was seen at 60 minutes
